# Like-named read-outs stand apart in the source and are kept apart here.
# Key:
# [1] = system: captopril-treated, saline-drinking SHRSP; assay: Protocol 2: Angiotensin II-induced renal damage in captopril-treated saline-drinking SHRSP; assay type: in vivo, male SHRSP/A3N
# Procedure: (§1) Animals. Studies were conducted in accordance with institutional guidelines using male SHRSP/A3N (generations F-75 to F-78), n = 37, from our local colony. These animals were bred from NIH stock, derived from the SHRSP/A3N substrain described originally by Okamoto and coworkers (Okamoto K et al. Circ. Res. 34 and 35 (suppl I):I-143-I-153.). All animals were housed in a room maintained on a 12:12-h light:dark-cycle and an ambient temperature of 22 ± 1°C in the Animal Care Facility at New York Medical College. Rats were weaned at 4 weeks of age and allowed free access to Purina Lab Chow 5001 (Ralston Purina, St. Louis, MO) and tap water until the initiation of experimental protocols.
# SHRSP were placed on Stroke-Prone Rodent Diet (#39-288, Zeigler Bros Inc., Gardners, PA) and 1% NaCl drinking solution ad libitum starting at 8.3 weeks of age. […] Animals were handled and weighed daily. Urine samples were collected for the assessment of proteinuria. Systolic blood pressure and heart rate were measured each week. After 2 weeks of treatment, animals were decapitated, trunk blood was collected into chilled EDTA tubes, and the kidneys were removed, blotted dry, and immediately weighed. Coronal sections of kidney were fixed and later processed for light microscopic evaluation.
# (§2) Assays and Analyses. Systolic blood pressure and heart rate of awake animals were measured by tail-cuff plethysmography using a Natsume KN-210 manometer and tachometer (Peninsula Laboratories Inc., Belmont, CA). Rats were warmed at 37°C for 10 min and allowed to rest quietly in a Lucite chamber before measurement of blood pressure. Measurements of urine volume were made gravimetrically. Urinary protein concentration was determined by the sulfosalicylic acid turbidity method. Plasma aldosterone was measured by radioimmunoassay using ^125I-aldosterone as a tracer (Coat-a Count Aldosterone, Diagnostic Products Co., Los Angeles, CA).
# (§3) Histology. Kidneys were preserved in 10% phosphate-buffered formalin. Coronal sections (2-3 µm) were stained with hematoxylin and eosin and examined by light microscopy in a blinded fashion as previously described (Stier CT et al. J Pharmacol Exp Ther (1992) 260:1410-1415). Glomerular damage was categorized as ischemic or thrombotic. Ischemic lesions were defined as retraction of glomerular capillary tufts with or without appreciable mesangiolysis. Glomerular thrombotic lesions were defined as any one of a combination of the following: segmental to global fibrinoid necrosis, focal thrombosis of glomerular capillaries, swelling and proliferation of intracapillary (endothelial and mesangial) and/or extracapillary cells (crescents), and expansion of reticulated mesangial matrix with or without significant hypercellularity. […] Vascular thrombotic lesions were defined as any one or a combination of the following: mural fibrinoid necrosis, extravasation and fragmentation of red blood cells, and luminal and/or mural thrombosis. Proliferative arteriopathy was characterized by proliferation of markedly swollen myointimal cells with swollen round to ovoid vesicular nuclei surrounded by mucinous extracellular matrix ("onion skinning") often resulting in nodular thickening. Vascular damage was expressed as the number of arteries and arterioles with lesions per 100 glomeruli. The presence of casts and tubular (ischemic) retraction and simplification was assessed semiquantitatively.
# Statistical Analysis. Significant effects with respect to treatment and time were determined by two-way analysis of variance. Data with only one grouping variable were analyzed statistically by Student's unpaired t tests. When more than two groups were compared, one-way analysis of variance was performed followed by the post-hoc Newman-Keul's multiple comparison test. Data were analyzed using version 2.01 of the GraphPad Prism statistical software package (GraphPad Software Inc., San Diego, CA). P < .05 was considered statistically significant. Data are reported as mean ± SEM.
# [2] = Single dose tolerability and pharmacokinetic trials, Japan and Ex-Japan; assay type: in vivo, Japanese (Japan) and European (Ex-Japan) subjects; conditions: for CL/F: single dose, least squares mean
# Procedure: A total of 76 European subjects and 38 Japanese subjects participated in the single and multiple dose tolerability and food effect trials. Three of the studies were Ex-Japan studies and included doses ranging from 10 mg to 1000 mg. The other two studies were conducted in Japan and included doses ranging from 50 mg to 600 mg.
# The Ex-Japan trials included (i) a single dose tolerability trial, and (ii) a multiple dose tolerability trial, and (iii) a food effect study.
# Both single dose and multiple dose tolerability trials were conducted in Japan utilizing healthy male Japanese subjects. […] Six subjects who received the 100 mg dose also participated in the food effect treatment arm of the single dose tolerability trial.
# Combining single dose fasting pharmacokinetic data from all five studies, an analysis of variance with factors for country (Japan, Ex-Japan), study nested within country, and dose were performed on the dose-normalized Cmax and AUC values to assess the effect of country (population). Dose normalization was done to the lowest dose (10 mg for single dose, 100 mg for multiple dose). In the absence of intravenous data, the distribution volume (V/F) and clearance (CL/F) parameters are represented as the apparent values and are normalized to 70 kg of body weight. There were no statistically significant differences between the Japan and Ex-Japan trials in any of the pharmacokinetic parameters analyzed.
# No statistically significant differences were noted between the Japan and ex-Japan population for any of the derived parameters evaluated.
# Each panel consisted of six subjects who were given eplerenone and two subjects who were given placebo.
# [3] = system: saline-drinking SHRSP; assay: Protocol 1: renal pathologic changes in saline-drinking SHRSP; assay type: in vivo, male SHRSP/A3N
# Procedure: as §1
# Eighteen SHRSP were given 1% NaCl to drink and were fed Stroke-Prone Rodent Diet (#39-288, Zeigler Brothers, Inc., Gardners, PA) starting at 8.1 weeks of age. […] Vehicle-control littermates received 2 ml/kg/d of the 0.5% methylcellulose solution. Animals were housed individually in metabolic cages so that measurements of 24-h urine output and protein excretion could be made. Animals were examined each day for neurologic signs of stroke. Systolic arterial pressure and heart rate were measured each week in awake rats. The experiment was terminated after 5 weeks of treatment when the animals were 13.1 weeks of age. Trunk blood was collected into chilled EDTA tubes following rapid decapitation of the animals between 10:00 am and 12:00 pm. Blood was stored at - 20°C for later measurement of plasma aldosterone levels. The kidneys were rapidly removed, weighed, and then preserved in fixative for later histologic examination.
# as §2, §3
# Statistical Analysis. Significant effects with respect to treatment and time were determined by two-way analysis of variance. Data with only one grouping variable were analyzed statistically by Student's unpaired t tests. […]
# [4] = captopril plus vehicle, or captopril plus angiotensin II plus eplerenone
# [5] = oral eplerenone 100 mg/kg/d, preterminal
smiles,measurement,setting,value
"COC(=O)[C@@H]1CC2=CC(=O)CC[C@]2(C)[C@@]23O[C@@H]2C[C@@]2(C)[C@@H](CC[C@@]24CCC(=O)O4)[C@H]13 [Eplerenone, Pregn-4-ene-7,21-dicarboxylic acid, 9,11-epoxy-17-hydroxy-3-oxo-, γ-lactone, methyl ester, (7α, 11α, 17β)-]","Glomerular damage, Ischemic","[1]; Captopril 50 mg/kg/d + vehicle, or CAP, Angiotensin II 25 ng/min + Eplerenone 100 mg/kg/d, 2 weeks",3.0 ± 1.0 lesions/100 glomeruli
same,"Glomerular damage, Thrombotic","[1]; as Table A-8B, 2 weeks",1.0 ± 0.3 lesions/100 glomeruli
same,"Glomerular damage, Total","[1]; as Table A-8B, 2 weeks",3.0 ± 1.0 lesions/100 glomeruli
same,"Renal arteriopathy, Proliferative","[1]; as Table A-8B, 2 weeks",0.1 ± 0.1 lesions/100 glomeruli
same,"Renal arteriopathy, Thrombotic","[1]; as Table A-8B, 2 weeks",4.0 ± 1.0 lesions/100 glomeruli
same,"Renal arteriopathy, Total","[1]; as Table A-8B, 2 weeks",4.0 ± 1.0 lesions/100 glomeruli
same,renal damage,[1]; captopril plus angiotensin II plus eplerenone 100 mg/kg/d,3 ± 1%
same,Preterminal systolic blood pressure,[1]; [4],231 ± 5 mm Hg
same,tubules with ischemic retraction and simplification,[1]; [4],2.5 ± 0.9%
same,proteinuria (urinary protein excretion),"[1]; end of study (2 weeks), captopril 50 mg/kg/d plus vehicle, or captopril plus angiotensin II 25 ng/min plus eplerenone 100 mg/kg/d",28 ± 5 mg/day
same,adverse events,"[2]; healthy Japanese male subjects, single doses 50-600 mg",no adverse events were reported
same,CL/F,"[2]; human, blood, po, Ex-Japan, read-out: CL/F (converted)",228 mL/min
same,CL/F,"[2]; human, blood, po, Japan, read-out: CL/F (converted)",230 mL/min
same,CL/F,[2]; Ex-Japan,14.44 L/hr/70 kg
same,CL/F,[2]; Japan,13.52 L/hr/70 kg
same,"Glomerular damage, Ischemic","[3]; 100 mg/kg/d by gavage, 5 weeks",1.0 ± 1.0 lesions/100 glomeruli
same,"Glomerular damage, Thrombotic","[3]; 100 mg/kg/d by gavage, 5 weeks",0.1 ± 0.1 lesions/100 glomeruli
same,"Glomerular damage, Total","[3]; 100 mg/kg/d by gavage, 5 weeks",1.0 ± 1.0 lesions/100 glomeruli
same,"Renal angiopathy, Proliferative","[3]; 100 mg/kg/d by gavage, 5 weeks",0.1 ± 0.1 lesions/100 glomeruli
same,"Renal angiopathy, Thrombotic","[3]; 100 mg/kg/d by gavage, 5 weeks",1.0 ± 1.0 lesions/100 glomeruli
same,"Renal angiopathy, Total","[3]; 100 mg/kg/d by gavage, 5 weeks",1.0 ± 1.0 lesions/100 glomeruli
same,"Protein casts, % of tubules","[3]; 100 mg/kg/d, 5 weeks",0.11 ± 0.04%
same,tubules displaying ischemic retraction and simplification,"[3]; 100 mg/kg/d, 5 weeks",0.5 ± 0.2%
same,evidence of stroke,"[3]; n = 9, P < .01 vs vehicle",none
same,renal lesions,[3]; oral eplerenone 100 mg/kg/d for 5 to 6 weeks,1 ± 1%
same,proteinuria (urinary protein excretion),[3]; [5],16 ± 2 mg/day
same,severe hypertension (systolic blood pressure),[3]; [5],219 ± 6 mm Hg

# — EP1289507B1, “USE OF AN ALDOSTERONE ANTAGONIST FOR THE TREATMENT OR PROPHYLAXIS OF ALDOSTERONE-MEDIATED PATHOGENIC EFFECTS” (priority 2000, dated 2001)
